Measurements from patent publication US8906826B2, “Herbicidal compositions comprising 4-amino-3-chloro-5-fluoro-6-(4-chloro-2-fluoro-3-methoxyphenyl) pyridine-2-carboxylic acid or a derivative thereof and imidazolinones” (Dow AgroSciences, LLC, priority 2012, dated 2014).

Key:
[1] = tested on: CENMA; assay: Postemergence herbicidal activity in forage crops (Example IV); assay type: in vivo, Centaurea biebersteinii DC.; details: after approximately 21 days
Method: (§1) Seeds or root cuttings of the desired test plant species were planted in Sun Gro MetroMix® 306 planting mixture, which typically has a pH of about 6.0 to about 6.8 and an organic matter content of about 30 percent, in plastic pots with a surface area of 126.6 square centimeters (cm^2). When required to ensure good germination and healthy plants, a fungicide treatment and/or other chemical or physical treatment was applied. The plants were grown for 14-60 days in a greenhouse with an approximate 14 hour photoperiod which was maintained at about 28° C. during the day and about 24° C. during the night. Nutrients and water were added on a regular basis and supplemental lighting was provided with overhead metal halide 1000-Watt lamps as necessary. The plants were employed for testing when they reached the BBCH13 to BBCH23 leaf stage.
(§2) Treatments consisted of the benzyl ester of 4-amino-3-chloro-5-fluoro-6-(4-chloro-2-fluoro-3-methoxy-phenyl)pyridine-2-carboxylic acid (Compound A), formulated as a SC (suspension concentrate), and a second herbicide alone and in combination.
(§3) A measured aliquot of Compound A was placed in a 25 milliliter (mL) glass vial and diluted in a volume of 1.25% (v/v) Agri-Dex® crop oil concentrate to obtain stock solutions. Compound requirements are based upon a 12 mL application volume at a rate of 187 liters per hectare (L/ha). Spray solutions of the second cereal herbicide and experimental compound mixtures were prepared by adding the stock solutions to the appropriate amount of dilution solution to form 12 mL spray solution with active ingredients in two- and three-way combinations. Formulated compounds were applied to the plant material with an overhead Mandel track sprayer equipped with an 8002E nozzle calibrated to deliver 187 L/ha over an application area of 0.503 square meters (m^2) at a spray height of 18 inches (46 cm) above average plant canopy. Control plants were sprayed in the same manner with the solvent blank.
(§4) The treated plants and control plants were placed in a greenhouse as described above and watered by sub-irrigation to prevent wash-off of the test compounds. After approximately 21 days, the condition of the test plants, as compared with that of the control plants, was determined visually and scored on a scale of 0 to 100 percent where 0 corresponds to no injury and 100 corresponds to complete kill.
(§5) Colby's equation was used to determine the herbicidal effects expected from the mixtures (Colby, S. R. 1967. Calculation of the synergistic and antagonistic response of herbicide combinations. Weeds 15:20-22.).
(§6) The following equation was used to calculate the expected activity of mixtures containing two active ingredients, A and B: Expected=A+B−(A×B/100)

[2] = tested on: SONAR; assay: as above; assay type: in vivo, Sonchus arvensis L.; details: after approximately 21 days
Method: as §1, §2, §3, §4, §5, §6

[3] = tested on: IPOHE; assay: Postemergence foliar-applied, direct seeded rice weeds (Example I); assay type: in vivo, Ipomoea hederacea Jacq.
From the text: Seeds or nutlets of the desired test plant species were planted in a soil matrix prepared by mixing a loam or sandy loam soil (e.g., 28.6 percent silt, 18.8 percent clay, and 52.6 percent sand, with a pH of about 5.8 and an organic matter content of about 1.8 percent) and calcareous grit in an 80 to 20 ratio. The soil matrix was contained in plastic pots with a volume of 1 quart and a surface area of 83.6 cm^2. When required to ensure good germination and healthy plants, a fungicide treatment and/or other chemical or physical treatment was applied. The plants were grown for 8-22 days in a greenhouse with an approximate 14 h photoperiod which was maintained at about 29° C. during the day and 26° C. during the night. Nutrients (Peters Excel® 15-5-15 5-Ca 2-Mg and iron chelate) were applied in the irrigation solution as needed and water was added on a regular basis. Supplemental lighting was provided with overhead metal halide 1000-Watt lamps as necessary. The plants were employed for testing when they reached the first through fourth true leaf stage.
Treatments consisted of the acid or esters of 4-amino-3-chloro-5-fluoro-6-(4-chloro-2-fluoro-3-methoxy-phenyl)pyridine-2-carboxylic acid (Compound A), each formulated as an SC (suspension concentrate), and various herbicidal components alone and in combination. Forms of compound A were applied on an acid equivalent basis.
Other herbicidal components were applied on an acid equivalent basis and include acetolactate synthase (ALS)-inhibiting herbicides (imidazolinone chemical class) imazethapyr ammonium salt formulated as Newpath®, imazamox ammonium salt formulated as Beyond®, imazapic ammonium salt formulated as Plateau®, imazapyr isopropylamine salt formulated as Arsenal®, imazamethabenz-methyl (technical material) and imazaquin isopropylamine salt formulated as Scepter®/Imagine®.
Treatment requirements were calculated based upon the rates being tested, the concentration of active ingredient or acid equivalent in the formulation, and a 12 mL application volume at a rate of 187 L/ha.
For treatments comprised of formulated compounds, measured amounts of compounds were placed individually in 25 mL glass vials and diluted in a volume of 1.25% (v/v) Agri-Dex® crop oil concentrated to obtain 12× stock solutions. […] Application solutions were prepared by adding an appropriate amount of each stock solution (e.g., 1 mL) and diluted to the appropriate final concentrations with the addition of 10 mL of an aqueous mixture of 1.25% (v/v) crop oil concentrate so that the final spray solutions contained 1.25+/−0.05% (v/v) crop oil concentrate.
For treatments comprised of technical compounds, weighed amounts can be placed individually in 25 mL glass vials and dissolved in a volume of 97:3 v/v acetone/DMSO to obtain 12× stock solutions. […] Application solutions can be prepared by adding an appropriate amount of each stock solution (e.g., 1 mL) and diluted to the appropriate final concentrations with the addition of 10 mL of an aqueous mixture of 1.5% (v/v) crop oil concentrate so that the final spray solutions contain 1.25% (v/v) crop oil concentrate. When technical materials are used, the concentrated stock solutions can be added to the spray solutions so that the final acetone and DMSO concentrations of the application solutions are 16.2% and 0.5%, respectively.
For treatments comprised of formulated and technical compounds, weighed amounts of the technical materials were placed individually in 25 mL glass vials and dissolved in a volume of 97:3 v/v acetone/DMSO to obtain 12× stock solutions, and measured amounts of the formulated compounds were placed individually in 25 mL glass vials and diluted in a volume of 1.5% (v/v) crop oil concentrate or water to obtain 12× stock solutions. […]

[4] = Compound A Benzyl Ester 17.5 gae/ha
[5] = Compound A Benzyl Ester 4.4 gae/ha
[6] = Compound A Benzyl Ester 8.8 gae/ha

## Cc1cnc(C2=NC(C)(C(C)C)C(=O)N2)c(C(=O)O)c1.N (racemic) [Imazapic ammonium, ammonium (±)-2-[4,5-dihydro-4-methyl-4-(1-methylethyl)-5-oxo-1H-imidazol-2-yl]-5-methyl-3-pyridinecarboxylic acid]
[1]; Imazapic ammonium 8.75 gae/ha
  CENMA Obs: 0%
[1]; Imazapic ammonium 17.5 gae/ha
  CENMA Obs: 0%
[2]; Imazapic ammonium 17.5 gae/ha
  SONAR Obs: 0%

## COc1c(Cl)ccc(-c2nc(C(=O)O)c(Cl)c(N)c2F)c1F [Compound A Acid, 4-amino-3-chloro-6-(4-chloro-2-fluoro-3-methoxyphenyl)-5-fluoropyridine-2-carboxylic acid]
[3]; Compound A Acid 4.38 gae/ha
  Visual Weed Control (%) - 21 DAA IPOHE Obs: 0%
[3]; Compound A Acid 8.75 gae/ha
  Visual Weed Control (%) - 21 DAA IPOHE Obs: 10%
[3]; Compound A Acid 17.5 gae/ha
  Visual Weed Control (%) - 21 DAA IPOHE Obs: 30%

## COc1c(Cl)ccc(-c2nc(C(=O)OCc3ccccc3)c(Cl)c(N)c2F)c1F [Compound A Benzyl Ester, benzyl ester of 4-amino-3-chloro-5-fluoro-6-(4-chloro-2-fluoro-3-methoxy-phenyl)pyridine-2-carboxylic acid]
[3]; Compound A Benzyl Ester 4.38 gae/ha
  Visual Weed Control (%) - 21 DAA IPOHE Obs: 0%
[3]; Compound A Benzyl Ester 8.75 gae/ha
  Visual Weed Control (%) - 21 DAA IPOHE Obs: 10%
[3]; [4]
  Visual Weed Control (%) - 21 DAA IPOHE Obs: 25%
[1]; [5]
  CENMA Obs: 70%
[1]; [6]
  CENMA Obs: 85%
[1]; [4]
  CENMA Obs: 95%
[2]; [5]
  SONAR Obs: 65%
[2]; [6]
  SONAR Obs: 100%
[2]; [4]
  SONAR Obs: 95%
